From the NIST ThermoML archive (doi:10.1016/j.jct.2014.06.017)
± gives the expanded uncertainty stated by the source.

Test: wn = mass fraction of the nth substance listed
Conditions: 100 kPa, Liquid, Concentric cylinders viscometry

SMILES: NCCO [2-aminoethan-1-ol] + O
- viscosity (298.2 K, w1 = 0.2): 1.72 ± 0.17 mPa·s
- viscosity (298.2 K, w1 = 0.2499): 2.02 ± 0.2 mPa·s
- viscosity (298.2 K, w1 = 0.3001): 2.32 ± 0.23 mPa·s
- viscosity (303.2 K, w1 = 0.2): 1.53 ± 0.15 mPa·s
- viscosity (303.2 K, w1 = 0.2499): 1.79 ± 0.18 mPa·s
- viscosity (303.2 K, w1 = 0.3001): 2.13 ± 0.21 mPa·s
- viscosity (313.2 K, w1 = 0.2): 1.18 ± 0.12 mPa·s
- viscosity (313.2 K, w1 = 0.2499): 1.32 ± 0.13 mPa·s
- viscosity (313.2 K, w1 = 0.3001): 1.59 ± 0.16 mPa·s
- viscosity (323.2 K, w1 = 0.2): 0.98 ± 0.1 mPa·s
- viscosity (323.2 K, w1 = 0.2499): 1.12 ± 0.11 mPa·s
- viscosity (323.2 K, w1 = 0.3001): 1.31 ± 0.13 mPa·s

SMILES: CN(CCO)CCO [N-methyldiethanolamine] + O
- viscosity (298.2 K, w1 = 0.3502): 4.07 ± 0.41 mPa·s
- viscosity (298.2 K, w1 = 0.4001): 5.2 ± 0.52 mPa·s
- viscosity (298.2 K, w1 = 0.45): 7.62 ± 0.77 mPa·s
- viscosity (303.2 K, w1 = 0.3502): 3.36 ± 0.34 mPa·s
- viscosity (303.2 K, w1 = 0.4001): 4.41 ± 0.44 mPa·s
- viscosity (303.2 K, w1 = 0.45): 6.1 ± 0.61 mPa·s
- viscosity (313.2 K, w1 = 0.3502): 2.56 ± 0.26 mPa·s
- viscosity (313.2 K, w1 = 0.4001): 3.02 ± 0.3 mPa·s
- viscosity (313.2 K, w1 = 0.45): 4.37 ± 0.44 mPa·s
- viscosity (323.2 K, w1 = 0.3502): 2.02 ± 0.2 mPa·s
- viscosity (323.2 K, w1 = 0.4001): 2.65 ± 0.27 mPa·s
- viscosity (323.2 K, w1 = 0.45): 3.63 ± 0.36 mPa·s

SMILES: OCCNCCO [diethanolamine] + O
- viscosity (298.2 K, w1 = 0.2001): 1.92 ± 0.19 mPa·s
- viscosity (298.2 K, w1 = 0.25): 2.61 ± 0.26 mPa·s
- viscosity (298.2 K, w1 = 0.3001): 3.26 ± 0.33 mPa·s
- viscosity (303.2 K, w1 = 0.2001): 1.67 ± 0.17 mPa·s
- viscosity (303.2 K, w1 = 0.25): 2.16 ± 0.22 mPa·s
- viscosity (303.2 K, w1 = 0.3001): 2.57 ± 0.26 mPa·s
- viscosity (313.2 K, w1 = 0.2001): 1.32 ± 0.13 mPa·s
- viscosity (313.2 K, w1 = 0.25): 1.67 ± 0.17 mPa·s
- viscosity (313.2 K, w1 = 0.3001): 1.99 ± 0.2 mPa·s
- viscosity (323.2 K, w1 = 0.2001): 1.05 ± 0.11 mPa·s
- viscosity (323.2 K, w1 = 0.25): 1.34 ± 0.13 mPa·s
- viscosity (323.2 K, w1 = 0.3001): 1.41 ± 0.14 mPa·s
